# From EP0801071A1, “LEWIS X DERIVATIVE AND PROCESS FOR PRODUCING THE SAME” (SUMITOMO PHARMACEUTICALS COMPANY, LIMITED, priority 1994, dated 1996)
# pIC50: −log10 of the molar value.
# Molecular target: T1, rsE-selectin (Homo sapiens, UniProt P16581)
# T1 sequence (P16581 22-556 limits assumed): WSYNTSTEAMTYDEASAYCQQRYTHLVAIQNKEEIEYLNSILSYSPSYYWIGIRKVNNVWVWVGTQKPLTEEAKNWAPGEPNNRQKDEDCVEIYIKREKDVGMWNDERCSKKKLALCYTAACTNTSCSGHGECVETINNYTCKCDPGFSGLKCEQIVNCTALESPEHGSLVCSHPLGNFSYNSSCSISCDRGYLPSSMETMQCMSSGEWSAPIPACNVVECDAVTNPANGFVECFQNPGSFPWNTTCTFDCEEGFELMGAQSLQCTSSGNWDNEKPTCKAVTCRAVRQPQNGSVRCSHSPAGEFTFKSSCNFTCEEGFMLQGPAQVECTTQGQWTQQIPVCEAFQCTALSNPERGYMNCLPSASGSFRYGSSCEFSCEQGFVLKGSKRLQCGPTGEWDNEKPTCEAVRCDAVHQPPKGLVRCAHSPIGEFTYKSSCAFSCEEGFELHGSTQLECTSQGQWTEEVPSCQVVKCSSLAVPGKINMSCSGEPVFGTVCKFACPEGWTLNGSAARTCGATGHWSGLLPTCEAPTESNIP
# Assay: Inhibition of adhesion of HL-60 cells to plate-coated rsE-selectin (Experiment 2)
# Format: cell-based
# Details: 50% inhibition concentration of adhesion of rsE-selectin to HL-60, from inhibition curves; medium-only well = 100%
# Experimental: The DPBS solution containing rsE-selectin (3 µg/ml) was added to a 96 well plate at 50 µl/well, while wells filled with DPBS without rsE-selectin (non-specific adhesion control) were prepared on the same plate, and the plate was kept at room temperature for 3 hours. Then wells were washed 3 times with a DPBS/BSA solution at 200 µl/well, and DPBS/BSA solution was added at 200 µl/well, and the plate was kept at room temperature for 1 hour. After removing DPBS/BSA solution, a medium containing NWB or NWB plus a compound of the invention was added at 40 µl/well.
# Frozen HL-60 cells were thawed promptly at 37°C, and washed with NWB cooled to 4°C 3 times by centrifugation at 1500rpm × 5 min. The cells were adjusted with NWB to 1×10^7 cells/ml, added to the plate at 20 µl/well, and the plate was kept at room temperature for 15 min.
# The plate was set on a plate washer to remove nonadhesive HL-60 cells. The plate washer was set at slow mode, cycle 3 (washing 3 times), soak 0 sec., 12 rows (along vertical direction), and volume of NWB for 1 washing 200 µl/well at room temperature.
# A citrate solution containing 0.1% NP-40 at room temperature was added at 50 µl/well, and the plate was kept at room temperature for 5 minutes. The substrate solution (4 mg OPDA, 4µl 30% H2O2/4 ml citrate) was added at 50 µl/well, protected from light with aluminum foil, allowed to develop color for 5 to 20 minutes, and the reaction was terminated by adding 4N-H2SO4 at 50µl/well. The substrate solution was used within 30 minutes after preparation.
# The OD490 of each well was determined, and the OD490 value of the well for nonspecific adhesion was subtracted from the value of each well. The value found in a well containing only the medium was used as a control (100%) and the amount of adhesion in wells containing Compounds (15), (31), (33)-(40) or (41) of the invention was calculated by percent in terms of the values of the control. By drawing inhibition curves, 50% inhibition concentration (IC50) was determined.
# The materials for the experiment were obtained from the following sources. rsE-selectin: producible by the method described in J. C. Poulson, J. Am. Chem. Soc., 117: 66-79 (1995). The sample of rsE-selectin used in the experiments was kindly supplied by the author. HL-60 : ATCC Corp. DPBS (Dulbecco Phosphate Buffered Saline) : GIBCO Corp. BSA (Bovine Serum Albumin) : Sigma Corp. HBSS (Hanks Balanced Salt Solution) : GIBCO Corp. OPDA (Ortho-phenylenediamine) : Sigma Corp. RPMI 1640 medium : GIBCO Corp. Bovine Fetal Serum : GIBCO Corp. Plate : Immulon. 2. (flat bottomed) : Dynatech Laboratories. Plate washer; Microplate Washer : Molecular Devices Corp.
# A compound of the present invention was adjusted to 100mM with DPBS, and pH was adjusted to 7.1-7.4.
# HL-60 was cultured in RPMI 1640 medium supplemented with 10% Bovine Fetal Serum. Using a cell freezing solution consisting of 80% RPMI 1640 medium + 10% Bovine Fetal Serum + 10% DMSO, HL-60 was frozen at 1.5 × 10^7 cells per a tube according to a conventional method, and stocked at -80°C. This was used under sterile condition.
# Composition of DPBS/BSA was DPBS + 1% BSA.
# Composition of NWB was HBSS + 10mM-HEPES + 0.2%glucose + 1%BSA+ 1mM-CaCl2. These two solutions are prepared under sterile condition.
# The citrate solution was prepared by dissolving 2.33 g of citric acid and 9.20 g of Na2HPO4·12H2O in 500 ml of desalted water.
row,SMILES,pIC50
1,"CC(=O)N[C@H]1[C@H]([C@H](O)[C@H](O)CO)O[C@@](O[C@H]2[C@@H](O)[C@@H](CO)O[C@@H](O[C@H]3[C@H](O[C@@H]4O[C@@H](C)[C@@H](O)[C@@H](O)[C@@H]4O)[C@@H](NC(=O)c4ccc5ccccc5c4)[C@H](OCCOCc4ccccc4)O[C@@H]3CO)[C@@H]2O)(C(=O)O)C[C@@H]1O [Compound 33, 2-Benzyloxyethyl (5-acetamido-3,5-dideoxy-α-D-glycero-D-galacto-2-nonulopyranosylonic acid)-(2→3)-O-(β-D-galactopyranosyl)-(1→4)-O-[α-L-fucopyranosyl-(1→3)-O ]-(2-deoxy-2-naphthamido-β-D-glucopyranoside)]",3.68
2,"CC(=O)N[C@H]1[C@H]([C@H](O)[C@H](O)CO)O[C@@](O[C@H]2[C@@H](O)[C@@H](CO)O[C@@H](O[C@H]3[C@H](O[C@@H]4O[C@@H](C)[C@@H](O)[C@@H](O)[C@@H]4O)[C@@H](NC(=O)c4ccc5ccccc5c4)[C@H](OCCOCCOCCO)O[C@@H]3CO)[C@@H]2O)(C(=O)O)C[C@@H]1O [Compound 34, 2-[2-(2-Hydroxyethoxy)ethoxy]ethyl (5-acetamido-3,5-dideoxy-α-D-glycero-D-galacto-2-nonulopyra nosylonic acid)-(2→3)-O-(β-D-galactopyranosyl)-(1→4)-O-[α-L-fucopyranosyl-(1→3)-O]-(2-deoxy-2-paphthamido-β-D-glucopyranoside)]",3.96
3,"COc1cc(CCCO[C@@H]2O[C@H](CO)[C@@H](O[C@@H]3O[C@H](CO)[C@H](O)[C@H](O[C@]4(C(=O)O)C[C@H](O)[C@@H](NC(C)=O)[C@H]([C@H](O)[C@H](O)CO)O4)[C@H]3O)[C@H](O[C@@H]3O[C@@H](C)[C@@H](O)[C@@H](O)[C@@H]3O)[C@H]2NC(=O)c2ccccc2)cc(OC)c1OC [Compound 41, 3-(3,4,5-Trimethoxyphenyl)propyl (5-acetamido-3,5-dideoxy-α-D-glycero-D-galacto-2-nonulopyranosylonic acid)-(2→3)-O-(β-D-galactopyranosyl)-(1→4)-O-[α-L-fucopyranosyl-(1→3)-O]-(2-deoxy-2-benzamido-β-D-glucopyranoside)]",3.96

# Next, values leading:
row,pIC50,SMILES
1,4.15,"CCCCCCCCCOc1c(OC)cc(CCCO[C@@H]2O[C@H](CO)[C@@H](O[C@@H]3O[C@H](CO)[C@H](O)[C@H](O[C@]4(C(=O)O)C[C@H](O)[C@@H](NC(C)=O)[C@H]([C@H](O)[C@H](O)CO)O4)[C@H]3O)[C@H](O[C@@H]3O[C@@H](C)[C@@H](O)[C@@H](O)[C@@H]3O)[C@H]2NC(=O)c2ccc3ccccc3c2)cc1OC [Compound 40, 3-(3,5-Dimethoxy-4-nonyloxyphenyl)propyl (5-acetamido-3,5-dideoxy-α-D-glycero-D-galacto-2-nonulopyra nosylonic acid)-(2→3)-O-(β-D-galactopyranosyl)-(1→4)-O-[α-L-fucopyranosyl-(1→3)-O]-(2-deoxy-2-naphthamido-β-D-glucopyranoside)]"
2,3.96,"CC(=O)N[C@H]1[C@H]([C@H](O)[C@H](O)CO)O[C@@](O[C@H]2[C@@H](O)[C@@H](CO)O[C@@H](O[C@H]3[C@H](O[C@@H]4O[C@@H](C)[C@@H](O)[C@@H](O)[C@@H]4O)[C@@H](NC(=O)c4ccc5ccccc5c4)[C@H](OCCCc4ccccc4)O[C@@H]3CO)[C@@H]2O)(C(=O)O)C[C@@H]1O [Compound 36, 3-Phenylpropyl (5-acetamido-3,5-dideoxy-α-D-glycero-D-galacto-2-nonulopyranosylonic acid)-(2→3)-O-(β-D-galactopyranosyl)-(1→4)-O-[α-L-fucopyranosyl-(1→3)-O]-(2-deoxy-2-naphthamido-β-D-glucopyranoside)]"
